We go through nine compounds from ChEMBL document CHEMBL1127164, “Dihydropyridine KATP potassium channel openers” (Bioorg Med Chem Lett, 1993).

Usually IC50 stands for the point on the concentration scale where inhibition reaches its midpoint. A lower IC50 goes with greater potency.

Type in all cases: functional
The species named for assay [1] is Cavia porcellus. As to the kind of experiment: The compound was tested for […] activity against guinea pig detrusor (bladder) strip mildly depolarized with 15 mM KCl.
Assay [2] is filed under the species Cavia porcellus. As to the kind of experiment: The compound was tested for […] activity against guinea pig vascular tissue (portal vein) strip mildly depolarized with 15 mM KCl.
Assay [3] is filed under the species Cavia porcellus. Put plainly: Tested for percent increase of efflux rate constant of 50 uM of compound using guinea pig detrusor.
The species entered for assay [4] is Cavia porcellus. As to the kind of experiment: The compound was tested for […] activity against guinea pig detrusor (bladder) strip contracted with 80 mM KCl.

Structures are written as SMILES.

Take `N#Cc1ccc(C2C3=C(O)CCCC3=NC3=C2C(=O)CCC3)cc1C(F)(F)F` (stereo not drawn): half-maximal inhibition in the assay filed under Cavia porcellus [1] (IC50) required 420 nM.

Regarding `O=C1CCCC2=C1C(c1ccc(-c3ccccc3)cc1)C1=C(O)CCCC1=N2` (stereo not drawn), the IC50 in the assay listed under Cavia porcellus [1] was found to be 1370 nM.

With `O=[N+]([O-])c1cccc(C2C3=C(CCCC3)N=C3CCCC(O)=C32)c1` (stereo not drawn), inhibition in the assay filed under Cavia porcellus [1] was half-maximal at 510 nM (IC50).

Consider `O=C1CCCC2=C1C(c1ccc(F)c(Cl)c1)C1=C(O)CCCC1=N2` (stereo not drawn), for which half-maximal inhibition in the assay filed under Cavia porcellus [1] (IC50) was put at 460 nM.

In the assay listed under Cavia porcellus [1], `CC1=CC(c2cccc([N+](=O)[O-])c2)C2=C(O)CCCC2=N1` (stereo not drawn) gave a 50% inhibitory concentration (IC50) of 660 nM.

Regarding `O=C1CCCC2=C1C(c1cc([N+](=O)[O-])cs1)C1=C(O)CCCC1=N2` (stereo not drawn), the IC50 in the assay filed under Cavia porcellus [1] amounted to 160 nM; in the assay listed under Cavia porcellus [2], 9 nM.

Consider `O=C1CCCC2=C1C(c1cccc([N+](=O)[O-])c1)C1=C(O)CCCC1=N2` (stereo not drawn), for which the Increase in the assay listed under Cavia porcellus [3] came out at 30.7%. Also, the IC50 is 4440 nM in the assay listed under Cavia porcellus [1], 100 nM in the assay filed under Cavia porcellus [2] and 47800 nM in the assay filed under Cavia porcellus [4].

Compound `COC(=O)C1=C(C)NC(C)=C(C(=O)OCCCN2CCC(c3ccccc3)(c3ccccc3)CC2)[C@@H]1c1cccc([N+](=O)[O-])c1` [DEXNIGULDIPINE] returned an IC50 in the assay filed under Cavia porcellus [1] of over 30000 nM.

Take `COC(=O)C1=C(C)NC(C)=C(C(=O)OCCCN2CCC(c3ccccc3)(c3ccccc3)CC2)[C@H]1c1cccc([N+](=O)[O-])c1` [NIGULDIPINE]: the IC50 in the assay listed under Cavia porcellus [1] is over 30000 nM.
